Assay results from PubChem BioAssay AID2060486 (Molecular Pharmacology Branch, DTP, NCI, 2025).

System: IGROV1 complex spheroids (HUVEC, MSC), viability % test/control
Assay: Anticancer human tumor IGROV1 cell line growth inhibition [GQUAD];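 also: spheroids exposed to compounds for 7 days before readout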
Conditions: for IC50: curve of first compound; for viability, T/C: stronger effect = lower value
Description: DNA G-quadruplex Stabilizer Agents in Combinations in Complex Spheroids
A high-throughput screen of multi-cell type tumor spheroids was designed to identify active combinations of DNA G-quadruplex stabilizer agents and targeted small molecules. Complex spheroids include a stromal component modeled by human endothelial cells (HUVEC) and fibroblasts modeled by human mesenchymal stem cells (MSCs). The concentration ranges selected for each drug and investigational agent were based upon clinically achievable concentrations if the clinical Cmax of the agent was known.
Compounds. The drugs and investigational agents: pidnarulex (CX-5461; NSC782164), APTO-253 (NSC789042), BRACO-19 (NSC847499), peposertib (NSC802822), ceralasertib (NSC780249), elimusertib (NSC800525), camonsertib (NSC841442), AZD-1390 (NSC803789), olaparib (NSC753686), talazoparib (NSC767125), ART-558 (NSC835418), sotorasib (NSC818433), MRTX-1133 (NSC836407), SN-38 (NSC673596), topotecan (NSC609699), etoposide (NSC141540), doxorubicin (NSC123127), gemcitabine (NSC613327), 5-fluorouracil (NSC19893), paclitaxel (NSC125973), vemurafenib (NSC761431), panobinostat (NSC761190), R-306465 (JNJ-16241199; NSC773264), adavosertib (NSC754352), TP-3654 (NSC805149), carboplatin (NSC241240), KSQ-4279 (NSC840948), and staurosporine (NSC755774) were obtained from the National Cancer Institute (NCI) Developmental Therapeutics Program Chemical Repository (34). The FDA-approved anticancer drug set is available from the NCI Developmental Therapeutics Program. […] The stock solutions were prepared in dimethyl sulfoxide (DMSO, Sigma-Aldrich, St. Louis, MO, cat. D2650) at 800-fold the tested concentration and stored at -70 degrees C prior to their use. All drugs and investigational agents were tested over a range starting from a high concentration at or near the clinical Cmax and decreasing in half-log increments. If the clinical Cmax for an agent had not been determined, the highest concentration tested was 10 microM.
2.3 Cell Culture. All cells were maintained in an incubator at 37 degrees C and 5% CO2 with 95% humidity. The PDC lines were cultured according to standard operating procedures established by the NCI PDMR. All PDCs were thawed and cultured in Matrigel-coated flasks prepared with a working solution of 1X Ham's F-12 nutrient mix, without supplementation (Invitrogen, cat. 11765054), 100 U/mL penicillin-streptomycin (Invitrogen, cat. 15140122), and 2.5% Matrigel (Corning Inc., cat. 354248) for the first three passages. The 857933-349-R-J2-PDC line was cultured in 6C/Colon 1B media, which includes advanced DMEM/F-12 (Thermo Fisher Scientific, cat. 12634028), 10 mM HEPES (Thermo Fisher Scientific, cat. 15630080), 1X GlutaMAX supplement (Thermo Fisher Scientific, cat. 35050061), 0.1 mg/mL primocin (InvivoGen, cat. ant-pm-2), 10% defined fetal bovine serum, heat inactivated (HyClone Laboratories Inc., cat. SH30070.03HI), 50% L-WRN conditioned media (ATCC, cat. CRL-3276), 1.25 mM N-Acetyl-L-cysteine (Sigma-Aldrich, cat. A9165), 10 mM nicotinamide (Sigma-Aldrich, cat. N0636), 1X B-27 supplement (Thermo Fisher Scientific, cat. 17504044), 1X N-2 supplement (Thermo Fisher Scientific, cat. 17502048), 10 microM Y-27632 dihydrochloride (Tocris Bioscience, cat. 1254), and 50 ng/mL human EGF recombinant protein (Thermo Fisher Scientific, cat. PHG0311). The 485176-168-R4-J1-PDC line was cultured in Panc media, which includes all 6C/Colon 1B media components plus 100 ng/mL human FGF-10 (Thermo Fisher Scientific, cat. 100-26), 500 nM SB-431542 (Selleckchem, cat. S1067), and gastrin (Tocris, cat. 3006).
[…]

[1] = second compound 0.0316 µM, first compound 0.0316 µM
[2] = second compound 0.0316 µM, first compound 0.316 µM
[3] = second compound 0.1 µM, first compound 0.0316 µM
[4] = second compound 0.1 µM, first compound 0.316 µM
[5] = second compound 0.316 µM, first compound 0.0316 µM
[6] = second compound 0.316 µM, first compound 0.316 µM
[7] = second compound 1 µM, first compound 0.0316 µM
[8] = second compound 1 µM, first compound 0.316 µM
[9] = second compound 3.16 µM, first compound 0.0316 µM
[10] = second compound 3.16 µM, first compound 0.316 µM
[11] = second compound 10 µM, first compound 0.0316 µM
[12] = second compound 10 µM, first compound 0.316 µM

SMILES: Cc1cccc(N(C)C(=O)C2C(O)CCN2c2nc(C)cc(C(F)(F)F)c2C#N)c1 (centres undefined) + CN(C)c1ccc(Nc2c3ccc(NC(=O)CCN4CCCC4)cc3nc3cc(NC(=O)CCN4CCCC4)ccc23)cc1
- IC50 (second compound 0.0316 µM): > 10000 nM
- IC50 (second compound 0.1 µM): > 10000 nM
- IC50 (second compound 0.316 µM): > 10000 nM
- IC50 (second compound 1 µM): > 10000 nM
- IC50 (second compound 3.16 µM): 5480 nM
- IC50 (second compound 10 µM): < 31.6 nM
- viability, T/C [1]: 101%
- viability, T/C (second compound 0.0316 µM, first compound 0.1 µM): 75.8%
- viability, T/C [2]: 85.2%
- viability, T/C (second compound 0.0316 µM, first compound 1 µM): 77.5%
- viability, T/C (second compound 0.0316 µM, first compound 3.16 µM): 92.5%
- viability, T/C (second compound 0.0316 µM, first compound 10 µM): 97.1%
- viability, T/C [3]: 93.9%
- viability, T/C (second compound 0.1 µM, first compound 0.1 µM): 83.2%
- viability, T/C [4]: 86.9%
- viability, T/C (second compound 0.1 µM, first compound 1 µM): 79.9%
- viability, T/C (second compound 0.1 µM, first compound 3.16 µM): 95.5%
- viability, T/C (second compound 0.1 µM, first compound 10 µM): 93.1%
- viability, T/C [5]: 99.1%
- viability, T/C (second compound 0.316 µM, first compound 0.1 µM): 79.5%
- viability, T/C [6]: 88.5%
- viability, T/C (second compound 0.316 µM, first compound 1 µM): 70.6%
- viability, T/C (second compound 0.316 µM, first compound 3.16 µM): 88.9%
- viability, T/C (second compound 0.316 µM, first compound 10 µM): 96.2%
- viability, T/C [7]: 86.2%
- viability, T/C (second compound 1 µM, first compound 0.1 µM): 90.6%
- viability, T/C [8]: 71%
- viability, T/C (second compound 1 µM, first compound 1 µM): 84.5%
- viability, T/C (second compound 1 µM, first compound 3.16 µM): 89.3%
- viability, T/C (second compound 1 µM, first compound 10 µM): 84.7%
- viability, T/C [9]: 83.1%
- viability, T/C (second compound 3.16 µM, first compound 0.1 µM): 85.2%
- viability, T/C [10]: 82.2%
- viability, T/C (second compound 3.16 µM, first compound 1 µM): 64%
- viability, T/C (second compound 3.16 µM, first compound 3.16 µM): 71%
- viability, T/C (second compound 3.16 µM, first compound 10 µM): 33.9%
- viability, T/C [11]: 43.5%
- viability, T/C (second compound 10 µM, first compound 0.1 µM): 50.3%
- viability, T/C [12]: 34.3%
- viability, T/C (second compound 10 µM, first compound 1 µM): 35%
- viability, T/C (second compound 10 µM, first compound 3.16 µM): 25.7%
- viability, T/C (second compound 10 µM, first compound 10 µM): 11.7%

SMILES: Cn1ncnc1[C@H]1c2n[nH]c(=O)c3cc(F)cc(c23)N[C@@H]1c1ccc(F)cc1 + CN(C)c1ccc(Nc2c3ccc(NC(=O)CCN4CCCC4)cc3nc3cc(NC(=O)CCN4CCCC4)ccc23)cc1
- IC50 (second compound 0.0316 µM): 89.6 nM
- IC50 (second compound 0.1 µM): 42.8 nM
- IC50 (second compound 0.316 µM): 127 nM
- IC50 (second compound 1 µM): 93.4 nM
- IC50 (second compound 3.16 µM): 56.5 nM
- IC50 (second compound 10 µM): < 0.999 nM
- viability, T/C (second compound 0.0316 µM, first compound 0.000999 µM): 99.9%
- viability, T/C (second compound 0.0316 µM, first compound 0.00316 µM): 88.4%
- viability, T/C (second compound 0.0316 µM, first compound 0.00999 µM): 95.1%
- viability, T/C [1]: 57%
- viability, T/C (second compound 0.0316 µM, first compound 0.0999 µM): 58.4%
- viability, T/C [2]: 40.1%
- viability, T/C (second compound 0.1 µM, first compound 0.000999 µM): 101%
- viability, T/C (second compound 0.1 µM, first compound 0.00316 µM): 82.3%
- viability, T/C (second compound 0.1 µM, first compound 0.00999 µM): 68.2%
- viability, T/C [3]: 46.2%
- viability, T/C (second compound 0.1 µM, first compound 0.0999 µM): 49.7%
- viability, T/C [4]: 35.9%
- viability, T/C (second compound 0.316 µM, first compound 0.000999 µM): 95.7%
- viability, T/C (second compound 0.316 µM, first compound 0.00316 µM): 77.7%
- viability, T/C (second compound 0.316 µM, first compound 0.00999 µM): 81.3%
- viability, T/C [5]: 52.2%
- viability, T/C (second compound 0.316 µM, first compound 0.0999 µM): 61.5%
- viability, T/C [6]: 38.4%
- viability, T/C (second compound 1 µM, first compound 0.000999 µM): 90.6%
- viability, T/C (second compound 1 µM, first compound 0.00316 µM): 79%
- viability, T/C (second compound 1 µM, first compound 0.00999 µM): 64.9%
- viability, T/C [7]: 65.4%
- viability, T/C (second compound 1 µM, first compound 0.0999 µM): 57%
- viability, T/C [8]: 28.8%
- viability, T/C (second compound 3.16 µM, first compound 0.000999 µM): 86.2%
- viability, T/C (second compound 3.16 µM, first compound 0.00316 µM): 79.4%
- viability, T/C (second compound 3.16 µM, first compound 0.00999 µM): 70.6%
- viability, T/C [9]: 58.1%
- viability, T/C (second compound 3.16 µM, first compound 0.0999 µM): 42.1%
- viability, T/C [10]: 29.6%
- viability, T/C (second compound 10 µM, first compound 0.000999 µM): 47.8%
- viability, T/C (second compound 10 µM, first compound 0.00316 µM): 40.2%
- viability, T/C (second compound 10 µM, first compound 0.00999 µM): 35.8%
- viability, T/C [11]: 35.1%
- viability, T/C (second compound 10 µM, first compound 0.0999 µM): 26.9%
- viability, T/C [12]: 19.2%
